Results from US8119635B2, “Diazabicyclic central nervous system active agents” (Abbott Laboratories, priority 2000, dated 2012).
Counter-ions that a name gives are not always drawn. Like-named read-outs stand apart in the source and are kept apart here.

Legend:
[1] = system: Male Sprague-Dawley rats; experiment: Formalin test (analgesia); format: in vivo; conditions: Rattus norvegicus, ip, intraperitoneally 5 minutes before injection of 50 μL 5% formalin into rear paw, nocifensive behaviors, read-out: (MED) minimally effective dose, formalin test
Method: Another in vivo protocol utilized to determine the effectiveness of nicotinic acetylcholine receptor ligands as analgesic agents was the formalin test.
Male Sprague-Dawley rats (Charles River, Portage, Mich.) weighing 200 to 400 grams were used for all experiments. After a 20 minute period of acclimation to individual cages, 50 μL of a 5% formalin solution was injected subcutaneous into the dorsal aspect of one of the rear paws and the rats were then returned to the clear observation cages suspended above mirror panels. […] Phase 1 of the formalin test was defined as the period of time immediately after injection of formalin until 10 minutes after the formalin injection (i.e., 0-10 minutes after formalin). Phase 2 was defined as the 20 minute period from 30 to 50 minutes after formalin injection. The investigator recorded nocifensive behaviors in the injected paw of four animals during the session by observing each animal for one 15 second observation period during each 1 minute interval. Nocifensive behaviors recorded included flinching, licking or biting the injected paw. In dose-response studies, the test compound (or saline) was administered intraperitoneally 5 minutes before injection of formalin.

[2] = target: T1, neuronal nicotinic acetylcholine receptors (Rattus norvegicus, UniProt P09483+P12390); experiment: Binding of [3H]-cytisine to neuronal nicotinic acetylcholine receptors, crude synaptic membranes from whole rat brain
T1 construct: crude synaptic membrane preparations from whole rat brain; from tissue; host or cells: whole rat brain, crude synaptic membranes
Method: The In Vitro protocols for determination of nicotinic acetylcholine channel receptor binding potencies of ligands were determined as follows.
Washed membranes were stored at −80° C. prior to use. Frozen aliquots were slowly thawed and resuspended in 20 volumes of buffer (containing: 120 mM NaCl, 5 mM KCl, 2 mM MgCl2, 2 mM CaCl2 and 50 mM Tris-Cl, pH 7.4 @[…]). After centrifuging at 20,000×g for 15 minutes, the pellets were resuspended in 30 volumes of buffer.
The test compounds were dissolved in water to make 10 mM stock solutions. Each solution was then diluted (1:100) with buffer (as above) and further taken through seven serial log dilutions to produce test solutions from 10^−5 to 10^−11 M.
Samples were incubated for 60 minutes at 4° C., then rapidly filtered through Whatman GF/B filters presoaked in 0.5% polyethyleneimine using 3×4 mL of ice-cold buffer. The filters are counted in 4 mL of Ecolume® (ICN). Nonspecific binding was determined in the presence of 10 μM (−)-nicotine and values were expressed as a percentage of total binding. IC50 values were determined with the RS-1 (BBN) nonlinear least squares curve-fitting program and IC50 values were converted to Ki values using the Cheng and Prusoff correction (Ki=IC50/(1+[ligand]/Kd of ligand).

T1 sequence (P09483 31-630): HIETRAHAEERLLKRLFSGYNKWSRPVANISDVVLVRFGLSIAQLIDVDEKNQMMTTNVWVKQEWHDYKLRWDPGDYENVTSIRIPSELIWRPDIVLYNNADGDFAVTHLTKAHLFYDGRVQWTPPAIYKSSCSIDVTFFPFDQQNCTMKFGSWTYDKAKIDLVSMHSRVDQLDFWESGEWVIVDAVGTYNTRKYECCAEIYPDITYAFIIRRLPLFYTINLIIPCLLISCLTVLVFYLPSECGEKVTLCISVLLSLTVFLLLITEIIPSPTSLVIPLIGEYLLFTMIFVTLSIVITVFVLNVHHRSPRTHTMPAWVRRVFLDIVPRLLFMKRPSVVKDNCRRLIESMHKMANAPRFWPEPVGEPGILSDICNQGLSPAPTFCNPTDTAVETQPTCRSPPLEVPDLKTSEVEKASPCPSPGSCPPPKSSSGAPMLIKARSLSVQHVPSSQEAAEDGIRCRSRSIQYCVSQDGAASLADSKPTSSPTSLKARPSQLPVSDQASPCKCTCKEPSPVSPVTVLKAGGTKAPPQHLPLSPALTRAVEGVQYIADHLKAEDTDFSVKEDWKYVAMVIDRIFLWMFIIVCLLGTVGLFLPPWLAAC
T1 sequence (P12390 25-500): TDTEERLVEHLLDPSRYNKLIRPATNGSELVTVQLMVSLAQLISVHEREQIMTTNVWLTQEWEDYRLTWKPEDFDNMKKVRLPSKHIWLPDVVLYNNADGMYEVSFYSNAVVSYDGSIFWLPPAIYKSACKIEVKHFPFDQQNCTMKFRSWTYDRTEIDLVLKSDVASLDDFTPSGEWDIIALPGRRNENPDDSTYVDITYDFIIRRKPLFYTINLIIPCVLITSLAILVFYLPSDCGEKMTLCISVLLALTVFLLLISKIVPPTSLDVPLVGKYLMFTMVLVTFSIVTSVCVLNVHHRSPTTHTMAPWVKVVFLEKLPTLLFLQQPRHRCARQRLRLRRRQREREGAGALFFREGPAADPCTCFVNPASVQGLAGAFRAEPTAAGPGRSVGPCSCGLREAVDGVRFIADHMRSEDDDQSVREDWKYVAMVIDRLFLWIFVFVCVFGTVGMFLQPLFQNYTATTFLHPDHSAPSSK

SMILES	minimal effective dose [1] [µmol/kg]	Ki [2] [pM]	Ki ([2]; [3H]-CYT 1.25 nM, whole rat brain membranes, 60 minutes at 4° C., IC50 converted to Ki by Cheng and Prusoff correction, read-out: Average Ki) [pM]
Cc1cncc(N2C[C@H]3CCN[C@H]3C2)c1 [Example 58, (3aR,6aR)-5-(5-methyl-3-pyridinyl)octahydropyrrolo[3,4-b]pyrrole trihydrochloride]	1.9	530	
c1cncc(N2C[C@H]3CNC[C@H]32)c1 [Example 52, (1R,5S)-6-(3-pyridinyl)-3,6-diazabicyclo[3.2.0]heptane fumarate]	19	1300	
c1cncc(N2C[C@@H]3CNC[C@@H]32)c1 [Example 55, (1S,5R)-6-(3-pyridinyl)-3,6-diazabicyclo[3.2.0]heptane fumarate]	> 19	720	
N#Cc1cncc(N2C[C@@H]3CCNC[C@@H]32)c1 [Example 50, 5-[(1R,6S)-3,8-diazabicyclo[4.2.0]oct-8-yl]nicotinonitrile fumarate]	6.2	510	
N#Cc1cc(N2C[C@H]3CCN[C@H]3C2)cnc1Br [Example 51, 5-((3aR,6aR)-hexahydropyrrolo[3,4-b]pyrrol-5(1H)-yl)-2-bromonicotinonitrile fumarate]	0.62	120	
C=Cc1cncc(N2C[C@H]3CCN[C@H]3C2)c1 [Example 56, (3aR,6aR)-5-(5-vinyl-3-pyridinyl)octahydropyrrolo[3,4-b]pyrrole dihydrochloride]	1.9	620	
Cc1cc(N2C[C@H]3CCN[C@H]3C2)cnc1Br [Example 60, (3aR,6aR)-5-(6-bromo-5-methyl-3-pyridinyl)octahydropyrrolo[3,4-b]pyrrole dihydrochloride]	0.62	110	
Clc1ccc(N2C[C@H]3CCNC[C@H]32)cn1 [Example 47, (1S,6R)-8-(6-chloro-3-pyridinyl)-3,8-diazabicyclo[4.2.0]octane difumarate]	1.9		800
Brc1cncc(N2C[C@@H]3CNC[C@@H]32)c1 [Example 71, (1S,5R)-6-(5-bromo-3-pyridinyl)-3,6-diazabicyclo[3.2.0]heptane]	> 19	1500	
N#Cc1cncc(N2C[C@@H]3CNC[C@@H]32)c1 [Example 70, 5-[(1S,5R)-3,6-diazabicyclo[3.2.0]hept-6-yl]nicotinonitrile fumarate]	> 19	860	
Brc1cncc(N2C[C@H]3CNC[C@H]32)c1 [Example 53, (1R,5S)-6-(5-bromo-3-pyridinyl)-3,6-diazabicyclo[3.2.0]heptane fumarate]	> 19	3100	
C#Cc1cncc(N2C[C@H]3CCN[C@H]3C2)c1 [Example 35, (3aR,6aR)-5-(5-ethynyl-3-pyridinyl)octahydropyrrolo[3,4-b]pyrrole hydrochloride dihydrochloride]	1.9	130	
CCc1cncc(N2C[C@H]3CCN[C@H]3C2)c1 [Example 63, (3aR,6aR)-5-(5-ethyl-3-pyridinyl)octahydropyrrolo[3,4-b]pyrrole]	> 19	560	
Clc1ccc(N2C[C@@H]3CN[C@@H]3C2)cn1 (relative stereo) [Example 41, (cis)-3-(6-chloro-3-pyridinyl)-3,6-diazabicyclo[3.2.0]heptane fumarate]	> 1.9	1900	
C=Cc1cc(N2C[C@@H]3CNC[C@@H]32)cnc1Br [Example 72, (1S,5R)-6-(6-bromo-5-vinyl-3-pyridinyl)-3,6-diazabicyclo[3.2.0]heptane fumarate]	> 19	600	
Cc1cc(N2C[C@H]3CNC[C@H]32)cnc1Cl [Example 87, (1R,5S)-6-(6-chloro-5-methyl-3-pyridinyl)-3,6-diazabicyclo[3.2.0]heptane 4-methylbenzenesulfonate]	6.2	200	

SMILES	minimal effective dose [1] [µmol/kg]	Ki [2] [pM]	Ki ([2]; [3H]-CYT 1.25 nM, whole rat brain membranes, 60 minutes at 4° C., IC50 converted to Ki by Cheng and Prusoff correction, read-out: Average Ki) [pM]
Clc1ccc(N2C[C@@H]3CNC[C@@H]32)cn1 [Example 54, (1S,5R)-6-(6-chloro-3-pyridinyl)-3,6-diazabicyclo[3.2.0]heptane fumarate]	1.9	1300	
c1cncc(N2C[C@@H]3CN[C@@H]3C2)c1 (relative stereo) [Example 38, (cis)-3-(3-pyridinyl)-3,6-diazabicyclo[3.2.0]heptane bis(4-methylbenzenesulfonate)]	> 6.2	160	
COc1cc(N2C[C@H]3CCN[C@H]3C2)cnc1Br [Example 43, (3aR,6aR)-5-(6-bromo-5-methoxy-3-pyridinyl)octahydropyrrolo[3,4-b]pyrrole]	6.2	300	
Brc1cncc(N2C[C@H]3CCN[C@H]3C2)c1 [Example 36, (3aR,6aR)-5-(5-bromo-3-pyridinyl)octahydropyrrolo[3,4-b]pyrrole dihydrochloride]	6.2	170	
N#Cc1cncc(N2C[C@H]3CNC[C@H]32)c1 [Example 74, 5-[(1R,5S)-3,6-diazabicyclo[3.2.0]hept-6-yl]nicotinonitrile bis(4-methylbenzenesulfonate)]	1.9	3200	
OCc1cc(N2C[C@H]3CCN[C@H]3C2)cnc1Br [Example 64, [5-((3aR,6aR)-hexahydropyrrolo[3,4-b]pyrrol-5(1H)-yl)-2-bromo-3-pyridinyl]methanol fumarate]	> 19	1100	
COc1cncc(N2C[C@H]3CNC[C@H]32)c1 [Example 86, (1R,5S)-6-(5-methoxy-3-pyridinyl)-3,6-diazabicyclo[3.2.0]heptane 4-methylbenzenesulfonate]	> 19	750	
N#Cc1cncc(N2C[C@H]3CCN[C@H]3C2)c1 [Example 37, 5-((3aR,6aR)-hexahydropyrrolo[3,4-b]pyrrol-5(1H)-yl)nicotinonitrile]	6.2	1200	
N#Cc1cncc(N2CC[C@H]3CN[C@H]3C2)c1 (relative stereo) [Example 62, (cis)-5-[3,8-diazabicyclo[4.2.0]oct-3-yl]nicotinonitrile fumarate]	0.19	100	
COCc1cc(N2C[C@H]3CCN[C@H]3C2)cnc1Br [Example 67, (3aR,6aR)-5-[6-bromo-5-(methoxymethyl)-3-pyridinyl]octahydropyrrolo[3,4-b]pyrrole fumarate]	19	1000	
C=Cc1cncc(N2C[C@@H]3CNC[C@@H]32)c1 [Example 69, (1S,5R)-6-(5-vinyl-3-pyridinyl)-3,6-diazabicyclo[3.2.0]heptane fumarate]	> 19	3200	
C#Cc1cncc(N2C[C@@H]3CNC[C@@H]32)c1 [Example 68, (1S,5R)-6-(5-ethynyl-3-pyridinyl)-3,6-diazabicyclo[3.2.0]heptane fumarate]	> 19	610	
c1cncc(N2CC3CNCC32)c1 (stereo not drawn) [Example 40, (cis)-6-(3′-pyridinyl)-3,6-diazabicyclo[3.2.0]heptane fumarate]	1.9	6200	
N#Cc1cc(N2C[C@H]3CNC[C@H]32)cnc1Br [Example 76, 2-bromo-5-[(1R,5S)-3,6-diazabicyclo[3.2.0]hept-6-yl]nicotinonitrile fumarate]	1.9	280	
Clc1cc(N2C[C@H]3CNC[C@H]32)cnc1Cl [Example 85, (1R,5S)-6-(5,6-dichloro-3-pyridinyl)-3,6-diazabicyclo[3.2.0]heptane fumarate]	> 19	270	
c1cncc(N2C[C@@H]3CCNC[C@@H]32)c1 (relative stereo) [Example 44, (cis)-8-(3-pyridinyl)-3,8-diazabicyclo[4.2.0]octane bis(4-methylbenzenesulfonate)]	6.2	230	
